Laboratory results as given in patent US20240415820A1, “COMBINATIONS FOR RETAINING FOLLICLES RESERVE” (SHEBA IMPACT LTD., priority 2021, published 2024).

Columns and labels:
PMF oocytes [1] = assay: Apoptosis assay, cPARP staining; type: in vivo, mouse; details: ovaries removed 24 h after Cy, alone or co-treated; FIG. 7B
Method: Apoptosis assay: Sample sections (5μ) from ovaries removed 24h after Cy treatment were stained for apoptotic marker cPARP antibody, and all the PMF oocytes were classified as positive/negative for apoptosis. Oocytes were counted from 6-8 ovaries and the ratio of stained oocytes to total oocytes was calculated.

primary follicles = assay: Proliferation assay, Ki-67 staining of primary follicles; type: in vivo, mouse
Method: Mild proliferation: 1-2 granulosa cells per follicle stained for Ki-67. Extensive proliferation: 3 or more granulosa cells per follicle stained for Ki-67. An average number of primary follicles stained in each category in 2-3 sections per ovary was calculated.

rpS6 = assay: Western blotting of whole ovaries, prpS6/rpS6; type: in vivo, mouse; details: whole ovaries 24 hours after Cy 150 mg/kg, alone or co-treated
[2] = test system: primordial follicles (PMF); assay: In vivo mouse model of Cy-induced follicle depletion, follicle counting (H&E)
Method: Ovaries removed 12 h, 24h, 3 days or 21 days following Cy treatment were fixed in PFA, paraffin-embedded and serially sectioned (5-μm).
Follicle counting: H&E staining was used for differential follicle counts in ovaries removed 3 and 21 days following Cy treatment and conducted as previously described. […] Atretic follicles were not calculated. Only follicles with non-atretic and healthy granulosa cells were counted for total number

mTOR = assay: Western blotting of whole ovaries, pmTOR/mTOR; type: in vivo, mouse; details: whole ovaries 24 hours after Cy 150 mg/kg, alone or co-treated
[3] = test system: primordial follicles (PMF); assay: Ex vivo culture of neonatal mouse ovaries with PM, PMF counting (H&E); type: cell-based; details: ex vivo ovaries of 12 days mice, PM 4 hours, with or without 400 nM Tem; FIG. 2A
[4] = 3 cycles of mating after Cy, alone or co-treated
PMF oocytes [5] = assay: DNA damage assay, γH2AX staining; type: in vivo, mouse; details: ovaries removed 12 h after Cy, alone or co-treated; FIG. 7A
Method: BALB/c female mice aged 12 days or 8 weeks (Envigo, Israel) were given a single intraperitoneal injection of 200 μl of PBS or an equal volume of 150 mg/kg Cy (Sigma-Aldrich), 5 mg/kg temsirolimus (Selleck Chemicals; 5 doses in 7 days before Cy treatment, Bozec et al., 2011; Wan et al., 2006) or 5 μg/mouse human C-terminus recombinant AMH (rAMH R&D Systems), 5 doses in 24 hours—every 6 hours following the administration of Cy (Roness et al., 2019). Ovaries were collected either 12 or 24 hours after Cy treatment for protein analysis and histochemical staining, and 3 or 21 days after Cy treatment for H&E staining and follicle counts. Ovaries were removed and placed immediately into either RNA later solution or 4% paraformaldehyde. All procedures were approved by the Institutional Animal Care and Use Institutional Ethics Committee.
DNA damage assay: Sample sections (5μ) from ovaries removed 12h after Cy treatment were stained for DNA damage evaluation with γH2AX antibody, and all the PMF oocytes were classified as positive/negative for DNA damage. Oocytes were counted from 6-8 ovaries and the ratio of stained oocytes to total oocytes was calculated.

[6] = Cy 150 mg/kg, with or without Tem, FIG. 3B

In the case of `CO[C@H]1C[C@@H]2CC[C@@H](C)[C@@](O)(O2)C(=O)C(=O)N2CCCC[C@H]2C(=O)O[C@H]([C@H](C)C[C@@H]2CC[C@@H](OC(=O)C(C)(CO)CO)[C@H](OC)C2)CC(=O)[C@H](C)/C=C(\C)[C@@H](O)[C@@H](OC)C(=O)[C@H](C)C[C@H](C)/C=C/C=C/C=C/1C` [Tem, Temsirolimus], the “PMF oocytes stained positive for cPARP (apoptosis)” value (PMF oocytes [1]) is reported as 14%, the “Granulosa cells in primary follicles, Mild proliferation” value (primary follicles; Ki-67, 1-2 granulosa cells stained, ovaries removed 24 hours after Cy 150 mg/kg or PBS) is reported as 22% and the “Granulosa cells in primary follicles, Extensive proliferation” value (primary follicles; Ki-67, 3 or more granulosa cells stained, ovaries removed 24 hours after Cy 150 mg/kg or PBS) is reported as 5%. For the same compound, the “primary follicles classified as proliferating (either mild or extensive proliferation)” value (primary follicles; Ki-67, 24 hours after Cy, alone or co-treated) was 32%, the “Granulosa cells in primary follicles, No proliferation” value (primary follicles; Ki-67, ovaries removed 24 hours after Cy 150 mg/kg or PBS) was 73% and the “relative band intensity of phosphorylated rpS6 (prpS6/rpS6 ratio)” value (rpS6) was 0.3. For the same compound, the “PMF count 21 days after Cy treatment” value ([2]; 8-week-old mice, single dose Cy 150 mg/kg, with or without Tem 5 mg/kg 5 doses, FIG. 3A) was 122.5±1.7, the “ratio between growing and dormant follicles” value ([2]; 3 days after Cy 150 mg/kg, with or without Tem, FIG. 3C) was 0.66 and the “number of PMFs three weeks after treatment” value ([2]; Cy 150 mg/kg, with or without Tem and/or rAMH (5 μg/mouse, 5 doses), FIG. 4) was 68.5±2.69. The “PMFs 3 days after Cy treatment” value [2, 6] was 101.6±8.9, the “total number of growing follicles 3 days after Cy treatment” value [2, 6] was 65.6±5.2 and the PMF loss ([2]; three weeks after Cy 150 mg/kg, with or without co-treatment, FIG. 4) was 52%. For the same compound, the “relative band intensity of phosphorylated mTOR (pmTOR/mTOR ratio)” value (mTOR) was 0.57 and the “PMFs on day 7 of culture” value [3] was 124±5.9.

With `O=P1(N(CCCl)CCCl)NCCCO1` (stereo not shown) [Cy, cyclophosphamide] the “PMF oocytes stained positive for cPARP (apoptosis)” value (PMF oocytes [1]) was 22%, the “Granulosa cells in primary follicles, Extensive proliferation” value (primary follicles; mouse, in vivo) was 21% and the “Granulosa cells in primary follicles, Mild proliferation” value (primary follicles; mouse, in vivo) was 63%. For the same compound, the “Granulosa cells in primary follicles, No proliferation” value (primary follicles; mouse, in vivo) was 16%, the “primary follicles classified as proliferating (either mild or extensive proliferation)” value (primary follicles; mouse, in vivo) was 84% and the “relative band intensity of phosphorylated rpS6 (prpS6/rpS6 ratio)” value (rpS6) was 1.88. The PMF loss ([2]; mouse, in vivo) was 77%, the “PMFs 3 days after Cy treatment” value ([2]; mouse, in vivo) was 59.5±2.7 and the “number of PMFs three weeks after treatment” value ([2]; mouse, in vivo) was 32±2.12. For the same compound, the “ratio between growing and dormant follicles” value ([2]; mouse, in vivo) was 1.31, the “total number of growing follicles 3 days after Cy treatment” value ([2]; mouse, in vivo) was 78.5±6.1 and the “relative band intensity of phosphorylated mTOR (pmTOR/mTOR ratio)” value (mTOR) was 1.44. The mean litter size [4] was 4.62 and the “PMF oocytes stained positive for γH2AX (DNA damage)” value (PMF oocytes [5]) was “more than 90%”.
